From ChEMBL document CHEMBL3046682, “Synthesis of lactosylated piperazinyl porphyrins and their hepatocyte-selective targeting” (Med Chem Res, 2007)
Converted amounts (≈) assume the structure as drawn.

Key:
Liver [1] = assay: Biodistribution in tumor-bearing Mus musculus KM (mouse) liver at 10 mg/kg, ip after 144 hr by fluorescence assay; format: ADME, organism-based; set-up: dose 10 mg/kg, route intraperitoneal; settings: in vivo
Liver [2] = assay: Biodistribution in tumor-bearing Mus musculus KM (mouse) liver at 10 mg/kg, ip after 3 to 24 hr by fluorescence assay; format: ADME, organism-based; set-up: dose 10 mg/kg, route intraperitoneal; settings: in vivo
Zone of skin = assay: Biodistribution in tumor-bearing Mus musculus KM (mouse) skin at 10 mg/kg, ip after 3 to 24 hr by fluorescence assay; format: ADME, organism-based; set-up: dose 10 mg/kg, route intraperitoneal; settings: in vivo
[3] = Photocytotoxicity against Homo sapiens (human) HNE1 cells assessed as cell death at 6.25 ug/ml after 18 hr by MTT assay in presence of light; format: functional
[4] = Cytotoxicity against Homo sapiens (human) MCG cells assessed as cell death after 48 hr by MTT assay in absence of light; format: functional; settings: read-out: ID50 (the source's name)
[5] = Cytotoxicity against Homo sapiens (human) HNE1 cells assessed as cell death after 48 hr by MTT assay in absence of light; format: functional; settings: HNE1, 48 h, read-out: ID50 (the source's name)
[6] = Cytotoxicity against Homo sapiens (human) Bel7404 cells assessed as cell death at 6.25 ug/ml after 18 hr by MTT assay in absence of light; format: functional, BEL-7404
[7] = Cytotoxicity against Homo sapiens (human) MCG cells assessed as cell death at 6.25 ug/ml after 18 hr by MTT assay in absence of light; format: functional
[8] = Photocytotoxicity against Homo sapiens (human) MCG cells assessed as cell death at 6.25 ug/ml after 18 hr by MTT assay in presence of light; format: functional
[9] = Cytotoxicity against Homo sapiens (human) Bel7404 cells assessed as cell death after 48 hr by MTT assay in absence of light; format: functional; settings: BEL-7404, 48 h, read-out: ID50 (the source's name)
[10] = Cytotoxicity against Homo sapiens (human) HNE1 cells assessed as cell death at 6.25 ug/ml after 18 hr by MTT assay in absence of light; format: functional
[11] = Photocytotoxicity against Homo sapiens (human) Bel7404 cells assessed as cell death at 6.25 ug/ml after 18 hr by MTT assay in presence of light; format: functional, BEL-7404
[12] = Solubility of the compound in water; format: physicochemical; settings: buffer

| Drug uptake (Liver [1]) | Drug uptake (Liver [2]) | Drug uptake (Zone of skin) | solubility [12] | Structure (SMILES) | Activity [3] | IC50 [4] | IC50 [5] | Activity [6] | Activity [7] | Activity [8] | IC50 [9] | Activity [10] | Activity [11] |
| --- | --- | --- | --- | --- | --- | --- | --- | --- | --- | --- | --- | --- | --- |
| Not Active | Active | Not Active |  | O=C([C@H](O)[C@@H](O)[C@H](O[C@@H]1O[C@H](CO)[C@H](O)[C@H](O)[C@H]1O)[C@H](O)CO)N1CCN(c2ccc(-c3c4nc(c(-c5ccc(N6CCN(C(=O)[C@H](O)[C@@H](O)[C@H](O[C@@H]7O[C@H](CO)[C@H](O)[C@H](O)[C@H]7O)[C@H](O)CO)CC6)cc5)c5ccc([nH]5)c(-c5ccc(N6CCN(C(=O)[C@H](O)[C@@H](O)[C@H](O[C@@H]7O[C@H](CO)[C@H](O)[C@H](O)[C@H]7O)[C@H](O)CO)CC6)cc5)c5nc(c(-c6ccc(N7CCN(C(=O)[C@H](O)[C@@H](O)[C@H](O[C@@H]8O[C@H](CO)[C@H](O)[C@H](O)[C@H]8O)[C@H](O)CO)CC7)cc6)c6ccc3[nH]6)C=C5)C=C4)cc2)CC1 |  |  |  |  |  |  |  |  |  |
|  |  |  |  | O=C([C@H](O)[C@@H](O)[C@H](O[C@@H]1O[C@H](CO)[C@H](O)[C@H](O)[C@H]1O)[C@H](O)CO)N1CCN(c2ccc(-c3c4nc(c(-c5ccccc5)c5ccc([nH]5)c(-c5ccccc5)c5nc(c(-c6ccccc6)c6ccc3[nH]6)C=C5)C=C4)cc2)CC1 | 75% | 48 µg/mL (≈ 46.2 µM) | 46 µg/mL (≈ 44.3 µM) | 8% | 8% | 75% | 43 µg/mL (≈ 41.4 µM) | 8% | 75% |
|  |  |  | Insoluble | C1=Cc2nc1c(-c1ccccc1)c1nc(c(-c3ccccc3)c3ccc([nH]3)c(-c3ccccc3)c3ccc([nH]3)c2-c2ccccc2)C=C1 [TETRAPHENYLPORPHYRIN] |  | > 50 µg/mL | > 50 µg/mL |  |  |  | > 50 µg/mL |  |  |
